Read-outs that look alike come from different tables or passages of the source.
System: ZIKV (PAN2016)
Test: Time-of-addition experiment, ZIKV PAN2016 in Vero E6 cells
Assay type: cell-based, Zika virus (ZIKV)
Conditions: for Inhibition of ZIKV infection, pretreatment of cells: cells incubated with compound 37° C. 1 h before ZIKV; for Inhibition of ZIKV infection, penetration (membrane fusion): cells with ZIKV at 4° C. 1 h; for Inhibition of ZIKV infection, penetration (membrane fusion) / Inhibition of ZIKV infection, post-entry stage: then compound 37° C. 1 h; for Inhibition of ZIKV infection, post-entry stage: cells with ZIKV at 37° C. 1 h; for Inhibition of ZIKV infection, attachment: ZIKV and compound at 4° C. 1 h; for Inhibition of ZIKV infection, pretreatment of ZIKV: virus incubated with compound 37° C. 1 h before cells; for inhibition at 7.5 µM: Zika virus
Protocol: FIG. 2A-K depicts a time-of-addition experiment to test the ability of the disclosed compounds to block ZIKV infection at different steps of the viral life cycle. […] FIG. 2B: Pretreatment of cells: cells were pre-incubated with one of the compounds at 37° C. for 1 h, and the unbound compounds were then removed, followed by addition of ZIKV and incubation of cells at 37° C. for 1 h. After removal of the unbound ZIKV, the cells were cultured and plaques and inhibition rate determined as in FIG. 2A. FIG. 2C: Blockage of ZIKV attachment: cells were incubated with ZIKV at 4° C. for 1 h (to allow ZIKV attachment but not fusion between ZIKV and cell membranes) in the presence of one of the compounds. After removal of the unbound ZIKV and compounds, the cells were cultured and plaques and inhibition rate determined. […] FIG. 2E: Blockage of ZIKV penetration (membrane fusion): cells were incubated with ZIKV at 4° C. for 1 h to allow ZIKV attachment. After removal of the unbound ZIKV, the cells were incubated with one of the compounds at 37° C. for 1 h to allow fusion of virus-cell membranes. After further removal of the unbound compounds, the cells were cultured and plaques and inhibition rate determined. FIG. 2F: Inhibition of post-entry stage: cells were incubated with ZIKV at 37° C. for 1 h (to allow ZIKV entry into the target cells). […] The percent inhibition was calculated based on the numbers of plaques in the presence or absence of serially diluted compounds. The data are expressed as mean±s.e.m. (n=2). The experiments were repeated three times with similar results.
Time-of-addition experiments were performed in Vero E6 cells, and six specific steps are shown as follows. 1) Step 1: Pretreatment of virus. […] After removal of the unbound compounds, ZIKV was incubated with cells at 37° C. for 1 h, followed by culturing cells at 37° C. for 4-5 days, and enumerating plaques. 2) Step 2: Pretreatment of cells. […] The unbound ZIKV was removed, and the cells were cultured and plaques enumerated as in Step 1. 3) Step 3: Attachment. […] After removal of the unbound ZIKV and compounds, the cells were cultured and plaques enumerated as in Step 1. 4) Step 4: Co-treatment. […] After removal of the unbound viruses and compounds, the cells were cultured and plaques enumerated as in Step 1. 5) Step 5: Fusion. Cells were incubated with ZIKV at 4° C. for 1 h for ZIKV attachment. […] The unbound compounds were removed, and the cells were cultured and plaques enumerated as in Step 1. 6) Step 6: Post-entry. Cells were incubated with ZIKV at 37° C. for 1 h for ZIKV entry. […] The unbound compounds were then removed, and the cells were cultured and enumerated for plaques as in Step 1. The data are expressed as mean % inhibition±s.e.m. (n=2). The percent inhibition was calculated based on the numbers of plaques in the presence or absence of the compounds. The experiments were repeated three times with similar results.
Time-of-addition experiments. were performed to identify mechanisms of the Z-medicaments against ZIKV infection. […] Specifically, the following six stages of ZIKV infection were tested: (a) Pretreatment of ZIKV (PAN2016, ˜2.5×10^3 PFU) with the Z-medicaments at 37° C. for 1 h before incubation with cells; (b) Pretreatment of cells with the Z-medicaments at 37° C. for 1 h before incubation with ZIKV (PAN2016, ˜100 PFU); (c) Co-treatment of cells, ZIKV (PAN2016, ˜300 PFU) and the Z-medicaments at 4° C. for 1 h; (d) Co-treatment of cells, ZIKV (PAN2016, ˜100 PFU) and the Z-medicaments at 37° C. for 1 h; (e) Pre-incubation of cells with ZIKV (PAN2016, ˜300 PFU) at 4° C. for 1 h and then incubation with the Z-medicaments at 37° C. for 1 h; and (f) Pre-incubation of ZIKV (PAN2016, ˜100 PFU) and cells at 37° C. for 1 h, followed by incubation with the Z-medicaments at 37° C. for 1 h. […]

[1] = gossypol 15 μM, curcumin 30 μM, digitonin 7.5 μM, conessine 30 μM, ST087010 15 μM
[2] = co-treatment of cells, gossypol 15 μM, curcumin 30 μM, digitonin 7.5 μM, conessine 30 μM, ST087010 15 μM

## Cc1cc2c(C(C)C)c(O)c(O)c(/C=N/n3c(=O)[nH][nH]c3=O)c2c(O)c1-c1c(C)cc2c(C(C)C)c(O)c(O)c(/C=N/n3c(=O)[nH][nH]c3=O)c2c1O [ST087010]
[1]
  Inhibition of ZIKV infection, pretreatment of cells: no or little
  Inhibition of ZIKV infection, penetration (membrane fusion): no or little
  Inhibition of ZIKV infection, post-entry stage: < 20%
  Inhibition of ZIKV infection, pretreatment of ZIKV: almost completely inhibited
[2]
  Inhibition of ZIKV infection, attachment: < 40%
co-treatment of cells, ZIKV and compound at 37° C. 1 h, gossypol 15 μM, curcumin 30 μM, digitonin 7.5 μM, conessine 30 μM, ST087010 15 μM
  Inhibition of ZIKV infection, co-treatment of ZIKV and cells: no or little

## C[C@@H]1CC[C@@]2(OC1)O[C@H]1[C@@H](O)[C@H]3[C@@H]4CC[C@H]5C[C@@H](O[C@@H]6O[C@H](CO)[C@H](O[C@@H]7O[C@H](CO)[C@@H](O)[C@H](O[C@@H]8OC[C@@H](O)[C@H](O)[C@H]8O)[C@H]7O[C@@H]7O[C@H](CO)[C@H](O)[C@H](O[C@@H]8O[C@H](CO)[C@@H](O)[C@H](O)[C@H]8O)[C@H]7O)[C@H](O)[C@H]6O)[C@H](O)C[C@]5(C)[C@H]4CC[C@]3(C)[C@H]1[C@@H]2C [Digitonin, digitonin]
Vero C1008, 1 h, read-out: Inhibition of ZIKV infection, penetration (membrane fusion)
  inhibition at 7.5 µM: 49 to 74%
Vero C1008, 1 h, read-out: Inhibition of ZIKV infection, post-entry stage
  inhibition at 7.5 µM: 49 to 74%
Vero C1008, read-out: Inhibition of ZIKV infection, pretreatment of cells
  inhibition at 7.5 µM: ≥ 94%
[1]
  Inhibition of ZIKV infection, pretreatment of ZIKV: no effects

## C[C@H]1[C@H]2CC[C@H]3[C@@H]4CC=C5C[C@@H](N(C)C)CC[C@]5(C)[C@H]4CC[C@]23CN1C [Conessine, conessine]
[2]
  Inhibition of ZIKV infection, attachment: very low, to no, effects
[1]
  Inhibition of ZIKV infection, pretreatment of ZIKV: very low, to no, effects

## COc1cc(/C=C/C(=O)CC(=O)/C=C/c2ccc(O)c(OC)c2)ccc1O [Curcumin, curcumin]
[1]
  Inhibition of ZIKV infection, pretreatment of cells: low to no impact
  Inhibition of ZIKV infection, penetration (membrane fusion): low to no impact
  Inhibition of ZIKV infection, post-entry stage: low to no impact

From US20220313651A1, “INHIBITORS OF ZIKA VIRUS INFECTION” (priority 2019, published 2022)
